The source of these data is patent US20230413814A1, “A METHOD FOR REMOVING A BIOFILM” (TECHNOLOGICAL UNIVERSITY DUBLIN, priority 2020, published 2023).

Molecules are shown by their SMILES.

Data set [1] relates to human gingival fibroblasts (HGFs). Also on record: dose or concentration left out as unconfirmed. As to conditions: exposed for 24 and 48 hours; cited from earlier work.
Data set [2] concerns Klebsiella pneumoniae NCIMB 418. The experiment in a line: Biofilm formation in 96 well plate, crystal violet assay. The data set is classed as cell-based. Particulars: for reduction of biofilm formation versus control: 24 hours, 37° C., FIG. 1 A. The method, then: (§1) FIG. 1: The effect of varying concentrations of DHA on the ability of Klebsiella pneumoniae NCIMB 418 (A) and Enterococcus faecalis ATCC 7080 (B) to form a biofilm in vitro. (10^6 CFU/well was incubated with various concentrations of DHA in a 96 well plate for 24 hours statically at 37° C. Biofilm formation was assessed using the crystal violet assay. Data represents the mean±SD for six independent experiments, carried out in triplicate. One-way ANOVA was performed for statistical analysis. *****P<0.001 compared to both the control (no DHA) and vehicle control (1% DMSO).
(§2) The effect of varying concentrations of DHA on the ability of Klebsiella pneumoniae NCIMB 418 and Enterococcus faecalis ATCC 7080 to form a biofilm in vitro was investigated. 10^6 CFU/well was incubated with various concentrations of DHA in a 96 well plate for 24 hours statically at 37° C. Biofilm formation was assessed using the crystal violet assay. Data represents the mean±SD for six independent experiments, carried out in triplicate. The assay involved seeding cells at 10^6 CFU/ml in media with DHA. Cells were then left for 24 hrs to form biofilms before washing and staining with Crystal Violet. Crystal violet adhered to cells stuck to the sides of the tube/well. The samples were washed again to remove any unbound dye before dissolving the stain in acetic acid and the reading was measured in a spectrophotometer. The colour intensity relates to the level of biofilm present. The more colour the more bacteria in the biofilm (Merrit, J. H, et al., (2005) “Growing and Analysing Static Biofilms”, Current Protocols in Microbiology, Chapter 1(July), p. Unit 1B.1.).

Data set [3] deals with Enterococcus faecalis ATCC 7080. Described as above. Particulars: for reduction of biofilm formation versus control: 24 hours, 37° C., FIG. 1 B. The data set is classed as cell-based. The method, then: as §1, §2
The subject of data set [4] is human periodontal ligament cells (hPDLCs). Also on record: dose or concentration left out as unconfirmed. As to conditions: exposed for 24 and 48 hours; cited from earlier work.
Setting [5] is: summary statement on FIG. 1, concentration not stated.

`CC/C=C\C/C=C\C/C=C\C/C=C\C/C=C\C/C=C\CCC(=O)O` [DHA, docosahexaenoic acid]: the cytotoxic effects result in data set [1] and in data set [4] was “exhibited cytotoxic effects” throughout. Also, the “reduction of biofilm formation versus control” value in data set [2] (DHA 6.25 μM) is reported as approximately 40%; in data set [2] (DHA 100 μM) it was approximately 65%; in data set [3] (DHA 6.25 μM) it was approximately 20%; in data set [3] (DHA 100 μM), approximately 65%. The reducing biofilm formation result in data set [2] (setting [5]) and in data set [3] (setting [5]) was “approximately 60%” in each case.
